Each structure is given as a SMILES string.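 Protocol summary: plate cells (96-well), add compound at 5 concentrations, incubate 48 h, interpolate endpoints linearly. At the GI50, growth is halved.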 The source made the active and inactive calls. Cut-off read from the data, not from the text of the source: active = GI50 up to about 1.1 µM and inactive = higher. Where only a bound is given, the exact number is not on record here.

Test systems include ACHN; HCT-15; OVCAR-5; TK-10; SK-MEL-5; DMS-273; HCC 2998; CCRF-CEM; M14; SK-MEL-28; RXF 393; EKVX; HL-60; SF-295; IGROV-1.
Holding throughout (assay): inhibition of tumour cell growth, NCI panel, 48 h

Regarding `O=S1(=O)[C@H](c2ccccc2)c2c(-c3ccccc3)sc(-c3ccccc3)c2[C@@H]1c1ccccc1`, the GI50 is > 100 µM (inactive) in the test with ACHN; over 100 µM in the test with HCT-15; 3.81 µM (inactive) in the test with OVCAR-5; > 100 µM (inactive) with TK-10; 71.9 µM (inactive) in the test with SK-MEL-5; > 100 µM (inactive) in the test with DMS-273. The GI50 is > 100 µM (inactive) in the test with HCC 2998; > 100 µM (inactive) with CCRF-CEM; > 100 µM (inactive) in the test with M14; > 100 µM (inactive) in the test on SK-MEL-28; 39.8 µM (inactive) in the test with RXF 393; > 100 µM (inactive) in the test on EKVX. Besides, the GI50 in the test with HL-60, with SF-295 and in the test with IGROV-1 was > 100 µM (inactive) in each case.

As to `O=Cc1c(O)c(C(=O)Nc2ccc3[nH]c(=O)[nH]c3c2)cc2ccccc12`, the GI50 with ACHN is > 100 µM (inactive); with HCT-15, over 100 µM; with OVCAR-5 it was > 100 µM (inactive); in the test with TK-10, > 100 µM (inactive); with SK-MEL-5, > 100 µM (inactive); in the test on DMS-273 it was > 100 µM (inactive). Also, the GI50 with HCC 2998, in the test with CCRF-CEM, in the test on M14, in the test with SK-MEL-28, with RXF 393 and in the test with EKVX was > 100 µM (inactive) throughout. The GI50 with HL-60, in the test with SF-295 and with IGROV-1 was > 100 µM (inactive) throughout.

Regarding `C=C(C)C12CC3CC(/C(=N/O)C(C1)/C3=N\O)[C@@]2(C)O` (stereo not given in full), the GI50 with ACHN was > 100 µM (inactive); in the test with HCT-15, over 100 µM; with OVCAR-5 it was > 100 µM (inactive); in the test on TK-10 it was > 100 µM (inactive); with SK-MEL-5, > 100 µM (inactive); in the test with DMS-273 it was > 100 µM (inactive). For the same compound, the GI50 in the test on HCC 2998, in the test with CCRF-CEM, in the test on M14, with SK-MEL-28, in the test on RXF 393 and in the test on EKVX was > 100 µM (inactive) in each case. For the same compound, the GI50 in the test on HL-60, in the test with SF-295 and in the test with IGROV-1 was > 100 µM (inactive) each time.

`C=C1C(=O)OC2CCCCC3OC3C12` (stereo not given): the GI50 with ACHN was 11 µM (inactive); in the test on HCT-15, 6.9 µM; in the test on OVCAR-5, 18.2 µM (inactive); with TK-10, 13.8 µM (inactive); in the test on SK-MEL-5, 3.99 µM (inactive); in the test with DMS-273, 10.3 µM (inactive). In addition, the GI50 in the test on HCC 2998 was 11.7 µM (inactive); with CCRF-CEM, 3.04 µM (inactive); with M14, 7.16 µM (inactive); in the test on SK-MEL-28, 10.9 µM (inactive); with RXF 393, 13.4 µM (inactive); in the test on EKVX, 16.9 µM (inactive). For the same compound, the values for the GI50 with HL-60, in the test with SF-295 and in the test with IGROV-1 were 2.79 µM (inactive), 23.2 µM (inactive) and 17.1 µM (inactive), respectively.

For the compound `Cc1cc(N(CCC#N)CCC#N)ccc1/C=C(\N=[N+]=[N-])C(=O)NC(=O)COc1ccccc1`, the GI50 in the test on ACHN was > 100 µM (inactive); in the test with HCT-15, over 100 µM; in the test with OVCAR-5, > 100 µM (inactive); in the test with TK-10 it was > 100 µM (inactive); with SK-MEL-5, > 100 µM (inactive); in the test with DMS-273, > 100 µM (inactive). The GI50 in the test with HCC 2998 is > 100 µM (inactive); in the test with CCRF-CEM, > 100 µM (inactive); in the test with M14, > 100 µM (inactive); in the test on SK-MEL-28 it was > 100 µM (inactive); in the test with RXF 393, > 46.3 µM (inactive); in the test on EKVX, > 100 µM (inactive). For the same compound, the GI50 in the test with HL-60 is > 100 µM (inactive); with SF-295 it was > 61.7 µM (inactive); in the test with IGROV-1 it was > 100 µM (inactive).

As to `O=C(Nc1ccc(Cl)cc1)c1cc([N+](=O)[O-])ccc1O`, the GI50 in the test with ACHN is 3.2 µM (inactive); in the test on HCT-15, 6.79 µM; with OVCAR-5, 4.53 µM (inactive); with TK-10, 5.58 µM (inactive); in the test with SK-MEL-5, 2.8 µM (inactive); in the test on DMS-273, 5.55 µM (inactive). Moreover, the GI50 with HCC 2998 was 2.32 µM (inactive); in the test with CCRF-CEM, 2.64 µM (inactive); in the test with M14 it was 3.65 µM (inactive); in the test on SK-MEL-28 it was 3.33 µM (inactive); with RXF 393, 1.77 µM (inactive); with EKVX it was 3.85 µM (inactive). Moreover, the values for the GI50 in the test with HL-60, in the test with SF-295 and in the test on IGROV-1 were 2.19 µM (inactive), 4.95 µM (inactive) and 3.27 µM (inactive), respectively.

For the compound `COc1cccc(/C=N\NC(=O)C(C)SC(C)C(=O)N/N=C/c2cccc(OC)c2)c1` (stereo not given), the GI50 in the test on ACHN is 18.9 µM (inactive); in the test with HCT-15, over 100 µM; with OVCAR-5 it was 53.8 µM (inactive); in the test with TK-10 it was 19.1 µM (inactive); in the test on SK-MEL-5, 56.1 µM (inactive); in the test on DMS-273, 33 µM (inactive). In addition, the GI50 was 18.5 µM (inactive) in the test on HCC 2998; 31.9 µM (inactive) with CCRF-CEM; 72.9 µM (inactive) in the test with M14; 36.6 µM (inactive) with SK-MEL-28; 11.1 µM (inactive) in the test on RXF 393; 27 µM (inactive) in the test with EKVX. For the same compound, the results for the GI50 in the test with HL-60, in the test on SF-295 and in the test on IGROV-1 were > 62.1 µM (inactive), 32.2 µM (inactive) and 20.3 µM (inactive), respectively.

Turning to `CNC(=O)OCc1cc2ccncc2c2c1[nH]c1ccccc12`, the GI50 in the test with ACHN is 5.47 µM (inactive); in the test on HCT-15, over 23.8 µM; in the test with OVCAR-5 it was > 77.6 µM (inactive); in the test on TK-10, > 100 µM (inactive); in the test with SK-MEL-5, > 100 µM (inactive); in the test on DMS-273 it was > 100 µM (inactive). Also, the GI50 is > 58.5 µM (inactive) in the test on HCC 2998; 7.4 µM (inactive) in the test on CCRF-CEM; > 100 µM (inactive) with M14; > 100 µM (inactive) in the test on SK-MEL-28; 2.55 µM (inactive) in the test on RXF 393; > 100 µM (inactive) with EKVX. Also, the GI50 is 19.1 µM (inactive) in the test with HL-60, > 100 µM (inactive) in the test on SF-295 and > 26.9 µM (inactive) in the test with IGROV-1.

Take `CCOC(=O)c1ccc(N[C@@H]2c3cc4c(cc3C(C3=CC(=O)C(=O)C(OC)=C3)[C@H]3C(=O)OCC32)OCO4)cc1` (stereo not given in full): the GI50 in the test on ACHN is 0.9 µM (active); in the test on HCT-15 it was 2.21 µM; in the test on OVCAR-5, 4.88 µM (inactive); in the test with TK-10, 9.84 µM (inactive); in the test with SK-MEL-5 it was 2.72 µM (inactive); with DMS-273, 1.12 µM (inactive). In addition, the GI50 with HCC 2998 is 4.6 µM (inactive); in the test on CCRF-CEM, 0.845 µM (active); in the test with M14 it was 2.51 µM (inactive); in the test with SK-MEL-28 it was 7.6 µM (inactive); in the test on RXF 393, 2.84 µM (inactive); in the test with EKVX it was 3.73 µM (inactive). Besides, the GI50 in the test on HL-60 is 0.802 µM (active); with SF-295 it was 1.35 µM (inactive); with IGROV-1, 5.78 µM (inactive).

The record behind these values is ChEMBL document CHEMBL1201862, “PubChem BioAssay data set” (2004).
